Assays:
human TRPV1 [1] = molecular target: T1, human TRPV1 (Homo sapiens (Human), UniProt Q8NER1); assay: Acid Activation Assay (pH 5.0, intracellular Ca2+, FLIPR); format: cell-based; conditions: percentage of the maximal pH 5.0-induced response remaining; recombinant HEK293 hTRPV1 cells; maximum concentration tested 37.5 μM
Protocol: Dulbecco's modified Eagle's medium (DMEM) with 4.5 m g/mL D-glucose, fetal bovine serum, L-glutamine, and 2-morpholinoethanesulfonic acid (MES) were purchased from Sigma-Aldrich Co. (St. Louis, Mo.). Dulbecco's phosphate-buffered saline (DPBS) with Ca^2+, Mg^2+, and 1 mg/mL D-glucose (pH 7.4), Geneticin®, 0.25% trypsin-1 mM EDTA, and penicillin-streptomycin were purchased from Invitrogen Corp. (Carlsbad, Calif.). The FLIPR® Calcium 4 assay kit was purchased from Molecular Devices (Sunnyvale, Calif.).
The cDNA for human TRPV1 (hTRPV1) was isolated by reverse transcriptase-polymerase chain reaction (RT-PCR) from human small intestine poly A+ RNA supplied by Clontech (Palo Alto, Calif.) using primers designed surrounding the initiation and termination codons identical to the published sequences (Hayes et al. Pain 2000, 88, 205-215). The resulting cDNA PCR products were subcloned into pCIneo mammalian expression vector (Promega) and fully sequenced using fluorescent dye-terminator reagents (Prism, PerkinElmer Applied Biosystems Division) and a PerkinElmer Applied Biosystems Model 373 DNA sequencer or Model 310 genetic analyzer. Expression plasmids encoding the hTRPV1 cDNA were transfected into HEK293 cells using Lipofectamine®. Forty-eight hours after transfection, the neomycin-resistant cells were selected with growth medium containing 800 μg/mL Geneticin (Life Technologies, formerly Gibco BRL). Surviving individual colonies were isolated and screened for TRPV1 activity. Cells expressing recombinant TRPV1 were maintained at 37° C. in DMEM containing 4 mM L-glutamine, 300 μg/mL G418 (Calbiochem) and 10% fetal bovine serum under a humidified 5% CO2 atmosphere.
The functional activity of compounds at the TRPV1 receptor was determined by measurement of intracellular Ca^2+ levels ([Ca^2+]i) using the Fluorescence Imaging Plate Reader (FLIPR)TETRA®. All compounds were tested over a 12-point one-half-log concentration range with 37.5 μM being the maximum concentration tested. Compound stocks, 10 mM, were prepared in DMSO, and diluted serially across a 384-well plate using a Bravo BenchCel workstation (Agilent Technologies, Santa Clara, Calif.). On the day prior to the experiment, the recombinant HEK293 cells expressing human TRPV1 (hTRPV1) were removed from tissue culture flasks and plated in growth medium into black-walled clear-bottom 384-well Biocoat™ poly-D-lysine assay plates (BD Biosciences, Bedford, Mass.) using a Multidrop® dispenser (ThermoScientific, Waltham, Mass.). On the day of the experiment growth medium was removed, and the no-wash FLIPR® Calcium-4 dye (λEX=470-495 nm, λEM=515-575 nm) was added to each well using the Multidrop® dispenser. The plated cells were incubated for 90-120 min in the dark at 25° C. The test compounds dissolved in DMSO were then added to the plates using an Agilent Bravo workstation (Agilent Technologies Inc., Santa Clara, Calif.). Three minutes later, a pH 5.0 solution was added to each well. Reagents were delivered at a rate of 40 μL/sec, and the final assay volume was 80 μL. Acidic pH solutions were prepared by titration of DPBS/MES with 1 N HCl. The intensity of the fluorescence was captured and digitally transferred to an interfaced PC. The maximum peak measured for the concentration range tested was used to calculate the corresponding peak increase in fluorescence over baseline (relative fluorescence units) which was expressed as the percentage (max % remain) of the maximal pH 5.0-induced response.
Table 1 reports the percentage (max % remain) of the maximal pH 5.0-induced response measured for the compounds tested in the recombinant HEK293 cell assay. Most of the compounds tested inhibited calcium flux only partially following TRPV1 activation by the pH 5.0 solution.

human TRPV1 [2] = molecular target: T1, human TRPV1; assay: Capsaicin Activation Assay (intracellular Ca2+, FLIPR); format: cell-based; conditions: recombinant HEK293 cells expressing hTRPV1, 50 nM capsaicin
Protocol: (Logan, Utah). Dulbecco's phosphate-buffered saline (D-PBS) (with 1 mg/mL glucose and 3.6 mg/l Na pyruvate, without phenol red), L-glutamine, hygromycin B, and Lipofectamine® were obtained from Life Technologies (Grand Island, N.Y.). G418 sulfate was obtained from Calbiochem-Novabiochem Corp. (San Diego, Calif.). […] (St. Louis, Mo.). […] The cDNA for human TRPV1 (hTRPV1) was isolated by reverse transcriptase-polymerase chain reaction (RT-PCR) from human small intestine poly A+ RNA supplied by Clontech (Palo Alto, Calif.) using primers designed surrounding the initiation and termination codons identical to the published sequences (Hayes et al. […] The resulting cDNA PCR products were subcloned into pCIneo mammalian expression vector (Promega) and fully sequenced using fluorescent dye-terminator reagents (Prism, PerkinElmer Applied Biosystems Division) and a PerkinElmer Applied Biosystems Model 373 DNA sequencer or Model 310 genetic analyzer. Expression plasmids encoding the hTRPV1 cDNA were transfected into HEK293 cells using Lipofectamine®. Forty-eight hours after transfection, the neomycin-resistant cells were selected with growth medium containing 800 μg/mL Geneticin (Life Technologies, formerly Gibco BRL). Surviving individual colonies were isolated and screened for TRPV1 activity. […] Compound stocks, 10 mM, were prepared in DMSO, and diluted serially across a 384-well plate using a Bravo BenchCel workstation (Agilent Technologies, Santa Clara, Calif.). […] On the day prior to the experiment, the recombinant HEK293 cells expressing human TRPV1 (hTRPV1) were removed from tissue culture flasks and plated in growth medium into black-walled clear-bottom 384-well Biocoat™ poly-D-lysine assay plates (BD Biosciences, Bedford, Mass.) using a Multidrop® dispenser (ThermoScientific, Waltham, Mass.). […] Molecular Devices, Sunnyvale, Calif.) was added to each well using the Multidrop® dispenser. […] Fluorescence readings were made at 1 to 5 second intervals over the course of the experimental run.

T1 sequence (Q8NER1 whole entry): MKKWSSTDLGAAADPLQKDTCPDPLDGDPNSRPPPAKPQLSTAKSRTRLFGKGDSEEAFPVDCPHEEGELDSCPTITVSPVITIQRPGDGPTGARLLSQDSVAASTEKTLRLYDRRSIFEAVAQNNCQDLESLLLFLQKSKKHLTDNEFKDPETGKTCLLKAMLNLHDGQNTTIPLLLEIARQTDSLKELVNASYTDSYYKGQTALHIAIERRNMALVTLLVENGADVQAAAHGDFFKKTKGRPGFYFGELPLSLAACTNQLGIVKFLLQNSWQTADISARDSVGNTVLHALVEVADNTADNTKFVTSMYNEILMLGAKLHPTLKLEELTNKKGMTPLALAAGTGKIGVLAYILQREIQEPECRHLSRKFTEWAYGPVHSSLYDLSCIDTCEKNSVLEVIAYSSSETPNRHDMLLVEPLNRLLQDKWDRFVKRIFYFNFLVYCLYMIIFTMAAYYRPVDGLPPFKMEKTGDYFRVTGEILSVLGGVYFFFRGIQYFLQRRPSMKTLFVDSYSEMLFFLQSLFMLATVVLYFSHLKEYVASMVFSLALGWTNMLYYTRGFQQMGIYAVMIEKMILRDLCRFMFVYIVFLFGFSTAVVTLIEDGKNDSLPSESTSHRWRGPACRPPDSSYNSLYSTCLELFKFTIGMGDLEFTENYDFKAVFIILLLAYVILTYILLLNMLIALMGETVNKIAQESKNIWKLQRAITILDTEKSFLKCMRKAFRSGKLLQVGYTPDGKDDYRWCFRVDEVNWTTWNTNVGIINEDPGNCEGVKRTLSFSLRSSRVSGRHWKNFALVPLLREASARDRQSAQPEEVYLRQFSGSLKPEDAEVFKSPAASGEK

| SMILES | human TRPV1 H^+ (max % remain) (human TRPV1 [1]) [%] | IC50 (human TRPV1 [2]) [nM] |
| --- | --- | --- |
| O=C(Nc1ccc2c(c1)NC(=O)N(CCO)C2)N[C@@H]1CCOc2c1cccc2C(F)(F)F [Example 53, 1-[3-(2-hydroxyethyl)-2-oxo-1,2,3,4-tetrahydroquinazolin-7-yl]-3-[(4R)-8-(trifluoromethyl)-3,4-dihydro-2H-chromen-4-yl]urea] | 1 | 1800 |
| Cn1c(=O)ccc2c(NC(=O)N[C@@H]3CC(C)(C)Oc4c3ccc(Cl)c4F)cccc21 [Example 85, 1-[(4R)-7-chloro-8-fluoro-2,2-dimethyl-3,4-dihydro-2H-chromen-4-yl]-3-(1-methyl-2-oxo-1,2-dihydroquinolin-5-yl)urea] | 39 | 23 |
| COCC1(COC)C[C@@H](NC(=O)Nc2ccc3c(c2)NC(=O)N(C)C3)c2cc(F)ccc2O1 [Example 196, 1-[(4R)-6-fluoro-2,2-bis(methoxymethyl)-3,4-dihydro-2H-chromen-4-yl]-3-(3-methyl-2-oxo-1,2,3,4-tetrahydroquinazolin-7-yl)urea] | 53 | 2700 |
| O=C(Nc1ccc2c(c1)NC(=O)N(CCO)C2)N[C@@H]1CC(CF)(CF)Oc2ccc(F)cc21 [Example 49, 1-[(4R)-6-fluoro-2,2-bis(fluoromethyl)-3,4-dihydro-2H-chromen-4-yl]-3-[3-(2-hydroxyethyl)-2-oxo-1,2,3,4-tetrahydroquinazolin-7-yl]urea] | 8 | 6100 |
| CN1C(=O)NCc2c(NC(=O)N[C@@H]3CCOc4c3cccc4C(C)(C)C)cccc21 [Example 142, 1-[(4R)-8-tert-butyl-3,4-dihydro-2H-chromen-4-yl]-3-(1-methyl-2-oxo-1,2,3,4-tetrahydroquinazolin-5-yl)urea] | 18 | 110 |
| C[C@]1(C(F)F)C[C@@H](NC(=O)Nc2ccc3c(c2)NC(=O)CO3)c2ccccc2O1 [Example 131, 1-[(2R,4R)-2-(difluoromethyl)-2-methyl-3,4-dihydro-2H-chromen-4-yl]-3-(3-oxo-3,4-dihydro-2H-1,4-benzoxazin-6-yl)urea] | 89 | 360 |
| CN1C(=O)CCc2ccc(NC(=O)N[C@@H]3CC(C)(C)Oc4c3ccc(Cl)c4F)cc21 [Example 294, 1-[(4R)-7-chloro-8-fluoro-2,2-dimethyl-3,4-dihydro-2H-chromen-4-yl]-3-(1-methyl-2-oxo-1,2,3,4-tetrahydroquinolin-7-yl)urea] | 71 | 120 |
| CN1C(=O)NCc2c(NC(=O)NC3COc4cc(Cl)ccc4C3)cccc21 (stereo not drawn) [Example 161, 1-(7-chloro-3,4-dihydro-2H-chromen-3-yl)-3-(1-methyl-2-oxo-1,2,3,4-tetrahydroquinazolin-5-yl)urea] | 9 | 95 |
| CN1C(=O)NCc2c(NC(=O)N[C@@H]3CCOc4ccccc43)cccc21 [Example 168, 1-[(4R)-3,4-dihydro-2H-chromen-4-yl]-3-(1-methyl-2-oxo-1,2,3,4-tetrahydroquinazolin-5-yl)urea] | 28 | 1200 |

Results, then the compound that gave them:

| human TRPV1 H^+ (max % remain) (human TRPV1 [1]) [%] | IC50 (human TRPV1 [2]) [nM] | SMILES |
| --- | --- | --- |
| 54 | 65 | CCCC1(CCC)C[C@@H](NC(=O)Nc2ccc3c(c2)N(C)C(=O)CC3)c2cc(F)ccc2O1 [Example 266, 1-[(4R)-6-fluoro-2,2-dipropyl-3,4-dihydro-2H-chromen-4-yl]-3-(1-methyl-2-oxo-1,2,3,4-tetrahydroquinolin-7-yl)urea] |
| 99 | 44 | CCC1(CC)C[C@@H](NC(=O)Nc2ccc3c(c2)NC(=O)CO3)c2ccccc2O1 [Example 102, 1-[(4R)-2,2-diethyl-3,4-dihydro-2H-chromen-4-yl]-3-(3-oxo-3,4-dihydro-2H-1,4-benzoxazin-6-yl)urea] |
| 53 | 100 | CN1Cc2ccc(NC(=O)N[C@@H]3CC(C)(C)Oc4c3cccc4C(F)(F)F)cc2NC1=O [Example 16, 1-[(4R)-2,2-dimethyl-8-(trifluoromethyl)-3,4-dihydro-2H-chromen-4-yl]-3-(3-methyl-2-oxo-1,2,3,4-tetrahydroquinazolin-7-yl)urea] |
| 77 | 44 | CN1C(=O)CCc2ccc(NC(=O)N[C@H]3CCOc4cc(OC(F)(F)F)ccc43)cc21 [Example 276, 1-(1-methyl-2-oxo-1,2,3,4-tetrahydroquinolin-7-yl)-3-[(4S)-7-(trifluoromethoxy)-3,4-dihydro-2H-chromen-4-yl]urea] |
| 40 | 21 | CN1C(=O)NCc2c(NC(=O)N[C@@H]3CC4(CCCC4)Oc4ccccc43)cccc21 [Example 15, 1-[(4R)-3,4-dihydrospiro[chromene-2,1′-cyclopentan]-4-yl]-3-(1-methyl-2-oxo-1,2,3,4-tetrahydroquinazolin-5-yl)urea] |
| 20 | 16 | CN1C(=O)NCc2c(NC(=O)N[C@@H]3CC(C)(C)Oc4cc(C(F)(F)F)ccc43)cccc21 [Example 150, 1-[(4R)-2,2-dimethyl-7-(trifluoromethyl)-3,4-dihydro-2H-chromen-4-yl]-3-(1-methyl-2-oxo-1,2,3,4-tetrahydroquinazolin-5-yl)urea] |
| 84 | 4800 | CN1C(=O)CCc2ccc(NC(=O)N[C@@H]3CCc4cc(Cl)ccc43)cc21 [Example 283, 1-[(1R)-5-chloro-2,3-dihydro-1H-inden-1-yl]-3-(1-methyl-2-oxo-1,2,3,4-tetrahydroquinolin-7-yl)urea] |
| 1 | 21 | CC1(C)C[C@@H](NC(=O)Nc2ccc3c(c2)NC(=O)N(CCO)C3)c2ccc(C(F)(F)F)cc2O1 [Example 48, 1-[(4R)-2,2-dimethyl-7-(trifluoromethyl)-3,4-dihydro-2H-chromen-4-yl]-3-[3-(2-hydroxyethyl)-2-oxo-1,2,3,4-tetrahydroquinazolin-7-yl]urea] |
| 34 | 58 | Cn1c(=O)ccc2c(NC(=O)N[C@@H]3CC(CF)(CF)Oc4cc(Cl)ccc43)cccc21 [Example 20, 1-[(4R)-7-chloro-2,2-bis(fluoromethyl)-3,4-dihydro-2H-chromen-4-yl]-3-(1-methyl-2-oxo-1,2-dihydroquinolin-5-yl)urea] |

— patent US8969325B2, “TRPV1 antagonists” (AbbVie Inc., priority 2011, dated 2015)
